Laboratory results reported in US6974804B2, “Esters” (Unilever Home & Personal Care USA, division of Conopco, Inc., priority 2000, dated 2005).

What was measured:
Format in all cases: physicochemical
[1] = Gelling of water-immiscible cosmetic liquids in 96 well glass micro-titre plate; parameters: key: gel; g4: gel after overnight (18 hrs) storage at 4° C.; g22: gel after overnight (18 hrs) storage at 22° C.; sg: soft gel; sg22: soft gel after overnight (18 hrs) storage at 22° C.; solution; *: the test at 4° C. was not carried out; details: for gelling of ISA: 150° C. 2.5 hours, cooled to ambient
Description: In this Example, various samples of esterified cellobiose prepared as in Example 1 or 2 above, were used to gel water-immiscible cosmetic liquids, in accordance with the procedure given below, in which a large number of gels can be prepared simultaneously.
The samples were tested in a 96 well (8×12 rows) glass micro-titre plate. […] About 0.01 or 0.02 g of each esterified cellobiose material was placed into 8 consecutive wells in a single row, so that each well contained approximately 5% or 10% of the cellobiose ester. The balance in each well comprised the cosmetic liquid by addition of approximately 0.2 g of the respective liquid to each cell. A glass lid was placed on top of the plate. The plate was carefully placed in a thermostatically controlled fan-assisted oven set at 150° C. for 2.5 hours. The plate was removed from the oven and allowed to cool naturally to ambient laboratory temperature. The contents of the wells were assessed at the end of the cooling period, by visual inspection and by poking the contents of each well with a micro-spatula. The plates were stored at […] for 18 hours and the contents inspected, and further stored for 18 hours at 4° C. and inspected for a third time. The results obtained in the tests are summarised in Table 5 below, in which the legend is as follows: […]

[2] = Light transmission at 580 nm (% T); details: 580 nm
Description: The translucency of a composition may be measured by placing a sample of standardised thickness in the light path of a spectrophotometer and measuring transmittance, as a percentage of light transmitted in the absence of the gel.
This test was carried out using a dual-beam spectrophotometer. The sample of composition was poured hot into a 4.5 ml cuvette made of poly(methyl-methacrylate) (PMMA) and allowed to cool to an ambient temperature of 20-25° C. Such a cuvette gives a 1 cm thickness of composition. […] A transmittence measured at any temperature in the range from 20-25° C. is usually adequately accurate, but measurement is made at 22° C. if more precision is required.

[3] = Visual assessment score (clarity of gel in 1 cm cuvette); details: for Clarity Visual (assessment score): scale −12 to 8
Excerpt: A gel contained within a 1 cm thick cuvette was placed directly on to a sheet of white paper on which 21 sets of figures where printed in black. The size and thickness of the figures varied systematically and were numbered from −12 (the largest, thickest set) through 0 to 8 (the smallest thinnest set) The score given to each gel was the highest numbered set which could be read clearly through the gel, the higher the number, the higher the clarity.

[4] = Stability testing of gels: crystal growth visible by eye on storage at 37° C.
Description: Gels were made up using 10% structurant in a 60:40 mixture of Hydrogenated Polyisobutene (Panalene L14E):DC245. The gels, in sealed glass bottles, were left to stand for 18 hrs at room temperature, after which they were transferred to an oven thermostatically controlled to 37° C. Samples were checked periodically for signs of crystal growth visible by eye. REF1 is cellobiose octanonanoate.
Gels were made up and tested in accordance with the procedure in Example 6, as such or modified by employing a weight ratio of 9% of REF1 and 1% of an additional structurant as specified in Table 13 below.
The test procedure of Example 9 was repeated, but using ACB structurant REF2 alone as the structurant or to which a CHME structurant was added.

[5] = DSC of gels: fibre dissolution temperature (FDT) and solubility of structurant; details: for Solubility of structurant at 25° C.: from DSC of gel, relative to benchmark REF 2; for FDT: gel heated at 5 K/min in DSC, peak temperature of the highest peak
Description: In this Example the Fibre dissolution temperature (FDT) is measured in the DSC process described later herein, by observing when the fibres dissolve whilst the temperature of sample rises. FDT is taken to be the peak temperature of the highest peak.
In REF2 and REF3, the acyl substituents at the other seven cellobiose sites are nonanoyl.
Samples of gel (about 20 mg) were sealed in stainless steel capsules for DSC. An empty stainless steel capsule was used as the physical reference. The samples were subjected to the following temperature programme:
The sample was heated to 100° C. and held at 100° C. for 1 minute, in order to obtain an isotropic solution. The sample was then cooled at 5 K/min to −20° C. The sample was held at −20° C. for 1 minute. The sample is now a gel on the bottom of the sample capsule prepared in a reproducible manner. The gel was then heated at 5 K/min to 100° C. Data was also obtained with empty stainless steel pans as both physical sample and reference. This blank data was later subtracted from the sample data to remove any curvature in the base line.

[6] = 5% cellobiose ester in Fluid AP
[7] = 5% cellobiose ester in Mineral oil
[8] = 5% cellobiose ester in Polydecene
[9] = 10% cellobiose ester in Fluid AP
[10] = 10% cellobiose ester in Mineral oil
[11] = 10% cellobiose ester in Polydecene
[12] = 9% REF2 and 1% of the specified ester in 60:40 hydrogenated polydecene:DC245
[13] = 60:40 hydrogenated polydecene:DC245 gelled with 9% REF2 and 1% of the specified cellobiose ester
[14] = 9% REF4 plus 1% of the named material
[15] = 9% REF4 plus 1% of the named material in 60:40 hydrogenated polydecene:DC245

Compound | gelling of DC556 ([1]; 5% cellobiose ester in DC556) | gelling of Fluid AP [1, 6] | gelling of IPM ([1]; 5% cellobiose ester in IPM) | gelling of ISA ([1]; 5% cellobiose ester in ISA) | gelling of Mineral oil [1, 7] | gelling of Polydecene [1, 8] | gelling of DC556 ([1]; 10% cellobiose ester in DC556) | gelling of Fluid AP [1, 9] | gelling of IPM ([1]; 10% cellobiose ester in IPM) | gelling of ISA ([1]; 10% cellobiose ester in ISA) | gelling of Mineral oil [1, 10] | gelling of Polydecene [1, 11] | Clarity % T [2, 12] | Clarity Visual (assessment score) [3, 12] | Clarity Visual (appearance) [3, 13] | Clarity % T [2, 14] | Clarity Visual (appearance) [3, 15] | Clarity Visual (assessment score) [3, 14] | also measured
cellobiose heptanonanoate monocyclohexanoate [Ex 1.10] | gel | gel | sol | g22 | gel | gel | gel | gel | g4 | gel | gel | gel | 42% | slight haze 6 | transparent/ |  |  |  | Visual ([3]; gel in 60:40 w/w Silkflo 364:DC245, score scale −12 to 8): >8; Observations ([4]; 9% of REF1 and 1% of additional structurant, after 12 days at 37° C.): No crystal growth after 12 days at 37 °C; Observation ([4]; 10% structurant in 60:40 Panalene L14E:DC245, after 17 days at 37° C.): No crystals after 17 days.; Observation ([4]; REF2 to which the CHME structurant was added, after 11 days at 37° C.): Some needle crystals on surface after 11; Observation ([4]; REF2 to which the CHME structurant was added, after 12 days at 37° C.): Some needle crystals in gel bulk after 12
CCCCCCCCCCCCCCCC(=O)OC1OC(COC(=O)CCCCCCCC)C(OC2OC(COC(=O)CCCCCCCC)C(OC(=O)CCCCCCCC)C(OC(=O)CCCCCCCC)C2OC(=O)CCCCCCCC)C(OC(=O)CCCCCCCC)C1OC(=O)CCCCCCCC (mixture of isomers) [Ex 1.9] | gel | gel | g4 | g22 | g22 | gel |  |  | g4 |  |  |  | 45% | > 8 | transparent |  |  |  | 
CCCCCCCCCC(=O)OCC1OC(OC2C(COC(=O)CCCCCCCCC)OC(OC(=O)c3ccc4ccccc4c3)C(OC(=O)CCCCCCCCC)C2OC(=O)CCCCCCCCC)C(OC(=O)CCCCCCCCC)C(OC(=O)CCCCCCCCC)C1OC(=O)CCCCCCCCC (mixture of isomers) [Ex 2.7] | gel | gel |  | gel | gel | gel | gel | gel |  | gel | gel | gel |  |  |  | 8.7% | translucent | 0 | 
CCCCCCCCC(=O)OCC1OC(OC2C(COC(=O)CCCCCCCC)OC(OC(C)=O)C(OC(=O)CCCCCCCC)C2OC(=O)CCCCCCCC)C(OC(=O)CCCCCCCC)C(OC(=O)CCCCCCCC)C1OC(=O)CCCCCCCC (mixture of isomers) [Ex 1.6] | sg22 | sg |  | sg | sg | gel | gel | gel |  | gel | gel | gel | 49% | > 8 | transparent |  |  |  | Solubility of structurant at 25° C. [5]: Less soluble. No; FDT [5]: 70 °C
CCCCCCCCCC(=O)OCC1OC(OC2C(COC(=O)CCCCCCCCC)OC(OC(=O)c3ccc(-c4ccccc4)cc3)C(OC(=O)CCCCCCCCC)C2OC(=O)CCCCCCCCC)C(OC(=O)CCCCCCCCC)C(OC(=O)CCCCCCCCC)C1OC(=O)CCCCCCCCC (mixture of isomers) [Ex 2.9] | gel | gel |  | g22 | sg | gel | gel | gel |  | gel | gel | gel |  |  |  | 7.7% | translucent | −3 | 
CCCCCCCCC(=O)OCC1OC(OC2C(COC(=O)CCCCCCCC)OC(OC(=O)c3ccc4ccccc4c3)C(OC(=O)CCCCCCCC)C2OC(=O)CCCCCCCC)C(OC(=O)CCCCCCCC)C(OC(=O)CCCCCCCC)C1OC(=O)CCCCCCCC (mixture of isomers) [Ex 1.4] | gel | gel | sol | g22 | g22 | g22 | gel | gel | sol | g22 | g22 | gel | 38% | slight haze >8 | transparent/ |  |  |  | gelling of Finsolv TN ([1]; 5% cellobiose ester in Finsolv TN): sol; gelling of Finsolv TN ([1]; 10% cellobiose ester in Finsolv TN): sol
CCCCCCCCCC(=O)OCC1OC(OC2C(COC(=O)CCCCCCCCC)OC(OC(=O)C3CCCCC3)C(OC(=O)CCCCCCCCC)C2OC(=O)CCCCCCCCC)C(OC(=O)CCCCCCCCC)C(OC(=O)CCCCCCCCC)C1OC(=O)CCCCCCCCC (mixture of isomers) [Ex 2.10] | gel | gel |  | g22 | gel | gel | gel | gel |  | gel | gel | gel |  |  |  | 5.9% | translucent | −5 | 
CCCCCCCCC(=O)OCC1OC(OC2C(COC(=O)CCCCCCCC)OC(OC(C)=O)C(OC(=O)CCCCCCCC)C2OC(=O)CCCCCCCC)C(OC(=O)CCCCCCCC)C(OC(=O)CCCCCCCC)C1OC(=O)CCCCCCCC (mixture of isomers) [Ex 1.5] | g22 | gel |  | g22 | g22 | gel | gel | gel |  | gel | gel | gel | 49% | > 8 | transparent |  |  |  | Solubility of structurant at 25° C. [5]: Less soluble. No; FDT [5]: 50 °C
